# From ChEMBL document CHEMBL1201862, “PubChem BioAssay data set” (2004)
# Activity calls are given as the source filed them.
# Legend:
# [1] = THP-1 cell cytotoxicity, dose response, cytotoxicity control for Vif-APOBEC3G degradation inhibitor project, THP-1 cells (AID 1117359); format: functional; details: Human immunodeficiency virus 1, THP-1
# [2] = target: T1, CAAX prenyl protease 2 (Saccharomyces cerevisiae S288c, UniProt Q03530); format: biochemical
# T1 sequence (Q03530 whole entry): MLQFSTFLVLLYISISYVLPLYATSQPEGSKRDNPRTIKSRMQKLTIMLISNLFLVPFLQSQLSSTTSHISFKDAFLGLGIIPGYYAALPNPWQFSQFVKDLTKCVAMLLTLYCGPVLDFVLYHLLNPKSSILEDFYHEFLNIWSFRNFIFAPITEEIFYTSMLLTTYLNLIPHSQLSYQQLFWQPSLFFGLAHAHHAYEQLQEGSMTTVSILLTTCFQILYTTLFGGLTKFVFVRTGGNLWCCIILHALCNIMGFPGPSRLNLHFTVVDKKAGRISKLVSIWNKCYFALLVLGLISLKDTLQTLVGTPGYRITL
# [3] = target: Cytochrome P450 2D6 (Homo sapiens, UniProt P10635);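 note: CYP2D6 member of a cytochrome P450 panel assay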
# [4] = cells; format: functional
# [5] = target: Ephrin type-A receptor 4 (Mus musculus, UniProt Q03137); test: inhibitors of EphA4 binding to KYL peptide, primary screen, biochemical, colorimetric, mouse EphA4 (AID 689); format: functional
# [6] = THP-1 cell cytotoxicity, dose response, cytotoxicity control for non-replicating M. tuberculosis project (AID 489025); format: functional
# [7] = target: Cytochrome P450 2C9 (Homo sapiens, UniProt P11712)
# [8] = microbe, parasite or virus in culture; format: functional; details: Mycobacterium tuberculosis
# [9] = target: Oxysterols receptor LXR-beta (Homo sapiens, UniProt P55055); format: functional, cell-based;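 note: Cell-based luminescence dose-response assay of agonist activity at LXR, run as a confirmatory counterscreen to a daf-12 agonist screen; HEK293 cells with Gal4-LXR fusion and GAL4-driven luciferase reporter; agonist potency from rising luciferase signal of a Gal4-LXR reporter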
# [10] = Luminescence Cell-Based Dose Response to Identify Activators of Luciferase Translation or Activity in H4-C Neuroglioblastoma Cells. [Related pubchem assays: 1829 (Project Summary), 1814 (Primary HTS)]; format: functional
# [11] = Luminescence Cell-Based Dose Confirmation to Identify Activators of 5'UTR Stem-Loop Driven Alpha-Synuclein mRNA Translation in H4 Neuroglioblastoma Cells. [Related pubchem assays: 1829 (Project Summary), 1814 (Primary HTS)]; format: functional
# [12] = Luminescence Cell-Based Dose Response to Identify Activators of 5'UTR Stem-Loop Driven Prion Protein mRNA Translation in H4-C Neuroglioblastoma Cells. [Related pubchem assays: 1829 (Project Summary), 1814 (Primary HTS)]; format: functional
# [13] = target: T2, Polyadenylate-binding protein 1 (Homo sapiens, UniProt P11940); test: PABP1 MLLE–PAM2 binding inhibitor potency, dose response, biochemical, fluorescence polarization, FITC-PAM2 peptide (AID 602259); format: functional; details: read-out: IC50_Mean
# [14] = target: T2, Polyadenylate-binding protein 1; test: PABP1 MLLE–PAM2 interaction inhibitors, dose response, miRNA deadenylation inhibitor project, biochemical, fluorescence polarization, Cy5-PAM2 peptide, secondary (AID 602260); format: functional; details: read-out: IC50_Mean
# [15] = tested on: H4; test: Luminescence Cell-Based Dose Response HTS to Identify Activators of 5'UTR Stem-Loop Driven Prion Protein mRNA Translation in H4 Neuroglioblastoma Cells. [Related pubchem assays: 1829 (Project Summary), 1814 (Primary HTS)]; format: functional; details: Homo sapiens
# [16] = cells
# [17] = Luminescence Cell-Based Dose Response HTS to Identify Activators of Luciferase Translation or Activity in H4 […] Cells. [Related pubchem assays: 1829 (Project Summary), 1814 (Primary HTS)]; format: functional
# [18] = P. falciparum late gametocyte killing, dose response, luminescence (AID 1117278); format: functional, cell-based;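 note: gametocytes exposed to compound for 24 hours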
# [19] = Jurkat T cell cytotoxicity, dose response, cytotoxicity control for P. falciparum gametocyte viability project, luminescence (AID 1117277); format: functional, cell-based;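 note: potency reflects loss of cellular ATP meaning fewer viable cells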
# [20] = target: Voltage-dependent T-type calcium channel subunit alpha-1H (Homo sapiens, UniProt O95180); format: functional;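 note: channel activity triggered by adding a high calcium stimulation buffer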
# [21] = HeLa 4N DNA content increase, dose response, cell-based, IC50 (AID 1117351); format: functional
# [22] = HeLa 2N DNA content increase, dose response, cell-based, IC50 (AID 1117349); format: functional
# [23] = Dose-response inhibition of insulin secretion in a rat insulinoma line at 5 mM glucose (AID 1117331); format: functional, cell-based; details: INS-1E
# [24] = cells; format: functional, cell-based; details: INS-1E
# [25] = target: Eukaryotic translation initiation factor 4E (Mus musculus, UniProt P63073); test: eIF4E–eIF4G protein interaction inhibitors, dose response, biochemical, TR-FRET (AID 855); format: functional;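 note: potency for disrupting eIF4E binding to eIF4GI seen as loss of FRET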
# [26] = inhibitors of Vif binding to APOBEC3G peptide, primary screen, biochemical, TR-FRET, GST-Vif 1-94, biotin-A3G peptide, dose response retest (AID 1117319); format: functional;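 note: TR-FRET signal of purified GST-Vif binding a biotinylated A3G peptide; inhibitors lower the FRET signal by blocking Vif and A3G binding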
# [27] = target: E3 ubiquitin-protein ligase Mdm2 (Homo sapiens, UniProt Q00987); test: enhancers of MDM2-luciferase reporter signal, concentration-effect titration, project on inhibitors of MDM2 ubiquitin ligase, cellular assay, luminescent readout, 384-well plate format (AID 1394); format: functional;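 note: MDM2 E3 inhibitors raise luminescence so EC50 is for signal enhancement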
# [28] = target: Melanocortin receptor 4 (Homo sapiens, UniProt P32245); format: functional, cell-based;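 note: Cell-based assay with luminescence read-out, confirmatory dose-response testing for agonist activity of biased ligands at MC4R; human U2OS cells with tagged receptor and beta-arrestin; potency of agonists that increase receptor coupling to beta-arrestin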
# [29] = target: Sphingosine 1-phosphate receptor 2 (Homo sapiens, UniProt O95136); test: Dose Response Cell Based Assay for Agonists of the S1P2 Receptor. [Related pubchem assays: 729, 736, 843 ]; format: functional
# [30] = target: T3, Tyrosine-protein phosphatase non-receptor type 7 (Homo sapiens, UniProt P35236); test: inhibitors of human HePTP phosphatase, […], biochemical, absorbance, leukemia target (AID 521); format: functional
# T3 sequence (P35236 whole entry): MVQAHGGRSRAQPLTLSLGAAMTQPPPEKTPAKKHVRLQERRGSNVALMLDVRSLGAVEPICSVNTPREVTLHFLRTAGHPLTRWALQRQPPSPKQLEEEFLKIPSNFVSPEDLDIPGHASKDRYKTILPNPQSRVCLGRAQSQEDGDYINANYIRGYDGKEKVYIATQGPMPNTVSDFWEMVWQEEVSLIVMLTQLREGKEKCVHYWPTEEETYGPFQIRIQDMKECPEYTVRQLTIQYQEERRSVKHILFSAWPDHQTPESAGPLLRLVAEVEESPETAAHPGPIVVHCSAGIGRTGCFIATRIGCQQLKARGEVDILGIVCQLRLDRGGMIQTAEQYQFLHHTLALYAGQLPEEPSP
# [31] = target: T4, Estrogen receptor beta (Homo sapiens, UniProt Q92731); test: ERβ–SRC-3 coactivator interaction inhibitors, confirmation, orthogonal assay, biochemical, ELISA, streptavidin-HRP readout (AID 1060)
# [32] = target: T5, Low molecular weight phosphotyrosine protein phosphatase (Homo sapiens, UniProt P24666); format: functional; details: read-out: IC50_Mean;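 note: Dose-response confirmation assay measuring inhibition of LMPTP enzyme activity by fluorescence intensity read-out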
# T5 sequence (P24666 whole entry): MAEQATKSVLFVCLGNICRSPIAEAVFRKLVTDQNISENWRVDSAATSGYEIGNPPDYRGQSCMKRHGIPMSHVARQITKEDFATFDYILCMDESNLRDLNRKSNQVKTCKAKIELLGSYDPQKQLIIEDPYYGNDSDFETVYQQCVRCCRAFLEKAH
# [33] = target: T4, Estrogen receptor beta
# [34] = inhibitors of intracellular T. cruzi replication, confirmation, NIH3T3 host cells, beta-gal luminescence (AID 2044); format: functional, cell-based;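 note: intracellular parasites grown in NIH/3T3 mouse fibroblasts as host cells; luminescent beta-galactosidase reporter signal from transgenic T. cruzi replicating inside host cells; inhibitors lower the luminescence signal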
# [35] = cytotoxicity toward NIH3T3 fibroblasts, dose response, counter-screen, cell-based, ATP luminescence, mouse fibroblasts (AID 2010); format: functional;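 note: cells exposed to compound for about 90 hours before reading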
# [36] = inhibitors of PGC1a acetylation in cells, dose response, cell-based, cherry-picked samples (AID 720514); format: functional;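 note: potency may reflect raised or lowered acetylation signal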
# [37] = C. albicans growth with fluconazole, confirmation, fluorescence, retest (AID 2467); format: functional, cell-based
# [38] = NIH-3T3 fibroblast cytotoxicity, dose response, cytotoxicity control, cell-based, fluorescence, Alamar Blue, secondary assay (AID 2327); format: functional;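 note: NIH-3T3 mouse fibroblasts cultured with fluconazole at 8 µg/mL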
# [39] = Shn3 3'UTR reporter inhibitors, dose response, cell-based, Clone20 osteoblasts, firefly luciferase, cherry-picked (AID 624132); format: functional;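 note: firefly luciferase luminescence from reporter carrying the Shn3 3'UTR in osteoblasts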
# [40] = target: Glucose-6-phosphate 1-dehydrogenase (Homo sapiens, UniProt P11413); test: human G6PD enzyme inhibitors, dose response, selectivity assay for P. falciparum G6PD inhibitor project, biochemical, fluorescence (AID 504792); format: functional
# [41] = control 3'UTR Renilla luciferase suppression, dose response, counter-screen for Shn3 inhibitor project, cell-based, Clone20-Shn3RL, cherry-picked (AID 624133); format: functional
# [42] = HepG2 cell cytotoxicity, dose response, cytotoxicity control for Shn3 inhibitor project, CellTiter-Glo, cherry-picked (AID 624134); format: functional, cell-based
# [43] = tested on: CHO; test: cytotoxicity in TLR9-MyD88 CHO cells, dose response, cytotoxicity control for TLR9-MyD88 binding inhibitor project, cell-based, luminescence (AID 588339); format: functional, hamster; details: Cricetulus griseus;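 note: CHO cells stably coexpressing TLR9 and MyD88 fusions from primary screen; compound exposure lasted 48 hours before viability readout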
# [44] = target: Beta Lactamase (Pseudomonas aeruginosa, UniProt Q932Y6); test: beta-lactamase reporter inhibitor potency, dose response, artefact control for TLR9-MyD88 binding inhibitor project, BLA reporter cells, FRET fluorescence (AID 588341); format: cell-based;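 note: cell based assay in CHO-K1 cells stably expressing beta-lactamase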
# [45] = target: T6, Rac GTPase-activating protein 1 (Homo sapiens, UniProt Q9H0H5); test: MgcRacGAP GTPase-activating activity inhibitors, confirmation, biochemical, ADP Hunter fluorescence, primary and confirmatory (AID 624330); format: functional
# T6 sequence (Q9H0H5 whole entry): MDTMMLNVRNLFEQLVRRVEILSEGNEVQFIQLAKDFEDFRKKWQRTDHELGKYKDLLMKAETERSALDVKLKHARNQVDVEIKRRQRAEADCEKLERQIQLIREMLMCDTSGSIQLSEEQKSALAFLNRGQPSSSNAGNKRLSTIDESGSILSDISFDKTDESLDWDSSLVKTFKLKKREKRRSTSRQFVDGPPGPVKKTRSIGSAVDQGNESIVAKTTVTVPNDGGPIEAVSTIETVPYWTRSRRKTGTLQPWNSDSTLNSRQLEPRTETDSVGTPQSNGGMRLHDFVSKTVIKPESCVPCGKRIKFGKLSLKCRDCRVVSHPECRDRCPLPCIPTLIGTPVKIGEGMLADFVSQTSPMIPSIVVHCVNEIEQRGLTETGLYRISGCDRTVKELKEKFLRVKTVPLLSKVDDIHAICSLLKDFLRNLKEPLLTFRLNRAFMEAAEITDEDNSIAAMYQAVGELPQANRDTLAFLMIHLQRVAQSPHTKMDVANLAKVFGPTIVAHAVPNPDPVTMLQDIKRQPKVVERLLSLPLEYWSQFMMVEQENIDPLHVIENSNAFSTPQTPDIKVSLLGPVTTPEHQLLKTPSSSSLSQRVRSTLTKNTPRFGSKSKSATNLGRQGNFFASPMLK
# T4 sequence (Q92731 whole entry): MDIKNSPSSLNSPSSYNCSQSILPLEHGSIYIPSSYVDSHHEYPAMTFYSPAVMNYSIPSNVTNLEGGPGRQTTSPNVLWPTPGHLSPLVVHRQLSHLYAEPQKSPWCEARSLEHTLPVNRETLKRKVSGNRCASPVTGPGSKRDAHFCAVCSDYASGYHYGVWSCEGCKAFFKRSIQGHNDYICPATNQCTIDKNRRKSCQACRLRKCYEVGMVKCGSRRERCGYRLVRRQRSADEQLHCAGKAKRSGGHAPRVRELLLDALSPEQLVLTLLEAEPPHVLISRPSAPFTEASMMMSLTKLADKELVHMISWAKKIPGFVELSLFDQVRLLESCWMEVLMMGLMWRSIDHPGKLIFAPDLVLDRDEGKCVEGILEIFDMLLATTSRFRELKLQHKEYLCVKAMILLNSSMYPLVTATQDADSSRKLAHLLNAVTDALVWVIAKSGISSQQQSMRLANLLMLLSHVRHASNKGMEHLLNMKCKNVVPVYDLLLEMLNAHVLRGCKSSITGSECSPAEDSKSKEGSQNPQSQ
# Sequence of Oxysterols receptor LXR-beta (P55055 whole entry, the tested form may be a part): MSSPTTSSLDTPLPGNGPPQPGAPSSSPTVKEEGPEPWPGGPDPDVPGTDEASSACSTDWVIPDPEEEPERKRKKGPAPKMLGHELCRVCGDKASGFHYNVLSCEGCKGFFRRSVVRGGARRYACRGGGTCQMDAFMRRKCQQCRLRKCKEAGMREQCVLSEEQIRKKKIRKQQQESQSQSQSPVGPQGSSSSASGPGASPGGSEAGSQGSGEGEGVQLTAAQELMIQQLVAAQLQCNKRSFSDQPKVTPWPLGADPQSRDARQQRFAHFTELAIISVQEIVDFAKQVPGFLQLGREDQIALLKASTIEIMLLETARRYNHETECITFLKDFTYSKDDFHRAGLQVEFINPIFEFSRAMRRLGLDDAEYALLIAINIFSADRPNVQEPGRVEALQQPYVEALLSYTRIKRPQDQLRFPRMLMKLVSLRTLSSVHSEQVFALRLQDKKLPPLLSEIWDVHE
# T2 sequence (P11940 whole entry): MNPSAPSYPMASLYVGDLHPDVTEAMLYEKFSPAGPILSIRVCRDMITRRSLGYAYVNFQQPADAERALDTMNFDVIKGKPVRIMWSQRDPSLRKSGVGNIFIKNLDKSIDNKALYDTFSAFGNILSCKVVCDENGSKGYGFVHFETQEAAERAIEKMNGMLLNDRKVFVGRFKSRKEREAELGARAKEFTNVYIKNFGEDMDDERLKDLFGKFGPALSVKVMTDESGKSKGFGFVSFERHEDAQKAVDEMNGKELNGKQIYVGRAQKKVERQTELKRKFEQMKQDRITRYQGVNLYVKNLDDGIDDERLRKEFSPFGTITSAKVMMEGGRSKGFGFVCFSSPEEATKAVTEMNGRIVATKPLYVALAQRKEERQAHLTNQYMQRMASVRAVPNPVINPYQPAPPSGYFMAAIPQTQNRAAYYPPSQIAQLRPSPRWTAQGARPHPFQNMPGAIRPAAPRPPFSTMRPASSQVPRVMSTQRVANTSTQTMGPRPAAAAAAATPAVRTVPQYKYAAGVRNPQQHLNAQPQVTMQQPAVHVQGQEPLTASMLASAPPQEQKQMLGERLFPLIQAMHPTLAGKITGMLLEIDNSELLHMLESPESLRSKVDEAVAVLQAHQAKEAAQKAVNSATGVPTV
# Sequence of Glucose-6-phosphate 1-dehydrogenase (P11413 whole entry): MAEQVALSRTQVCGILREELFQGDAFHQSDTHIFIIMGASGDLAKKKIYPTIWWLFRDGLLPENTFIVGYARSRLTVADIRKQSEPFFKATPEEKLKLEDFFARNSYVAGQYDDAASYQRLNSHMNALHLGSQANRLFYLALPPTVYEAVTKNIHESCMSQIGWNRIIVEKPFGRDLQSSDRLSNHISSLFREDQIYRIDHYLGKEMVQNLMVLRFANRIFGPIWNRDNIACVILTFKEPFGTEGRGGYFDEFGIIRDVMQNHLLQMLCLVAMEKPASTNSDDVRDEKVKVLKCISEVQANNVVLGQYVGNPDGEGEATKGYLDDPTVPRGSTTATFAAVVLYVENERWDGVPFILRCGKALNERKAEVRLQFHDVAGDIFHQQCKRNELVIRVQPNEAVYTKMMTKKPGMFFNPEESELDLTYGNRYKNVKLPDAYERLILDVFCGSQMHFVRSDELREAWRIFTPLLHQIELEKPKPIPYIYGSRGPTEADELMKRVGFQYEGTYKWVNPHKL
# Sequence of Beta Lactamase (Q932Y6 whole entry): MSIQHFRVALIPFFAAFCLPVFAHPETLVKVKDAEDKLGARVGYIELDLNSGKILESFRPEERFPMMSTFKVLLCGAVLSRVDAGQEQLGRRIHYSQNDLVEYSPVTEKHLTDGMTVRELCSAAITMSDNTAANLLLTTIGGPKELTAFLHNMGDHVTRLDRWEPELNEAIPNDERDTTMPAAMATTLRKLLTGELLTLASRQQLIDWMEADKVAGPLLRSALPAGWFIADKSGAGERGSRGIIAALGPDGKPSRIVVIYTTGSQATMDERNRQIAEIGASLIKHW
# Sequence of Melanocortin receptor 4 (P32245 whole entry): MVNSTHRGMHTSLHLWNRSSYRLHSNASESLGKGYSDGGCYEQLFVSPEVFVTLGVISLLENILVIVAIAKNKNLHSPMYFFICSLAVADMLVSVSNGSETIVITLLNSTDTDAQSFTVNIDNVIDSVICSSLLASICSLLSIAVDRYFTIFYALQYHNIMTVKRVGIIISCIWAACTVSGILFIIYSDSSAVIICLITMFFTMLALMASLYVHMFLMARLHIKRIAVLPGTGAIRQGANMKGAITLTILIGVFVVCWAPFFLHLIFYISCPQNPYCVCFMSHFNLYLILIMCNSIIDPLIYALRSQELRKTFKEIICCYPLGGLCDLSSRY
# Sequence of Ephrin type-A receptor 4 (Q03137 whole entry): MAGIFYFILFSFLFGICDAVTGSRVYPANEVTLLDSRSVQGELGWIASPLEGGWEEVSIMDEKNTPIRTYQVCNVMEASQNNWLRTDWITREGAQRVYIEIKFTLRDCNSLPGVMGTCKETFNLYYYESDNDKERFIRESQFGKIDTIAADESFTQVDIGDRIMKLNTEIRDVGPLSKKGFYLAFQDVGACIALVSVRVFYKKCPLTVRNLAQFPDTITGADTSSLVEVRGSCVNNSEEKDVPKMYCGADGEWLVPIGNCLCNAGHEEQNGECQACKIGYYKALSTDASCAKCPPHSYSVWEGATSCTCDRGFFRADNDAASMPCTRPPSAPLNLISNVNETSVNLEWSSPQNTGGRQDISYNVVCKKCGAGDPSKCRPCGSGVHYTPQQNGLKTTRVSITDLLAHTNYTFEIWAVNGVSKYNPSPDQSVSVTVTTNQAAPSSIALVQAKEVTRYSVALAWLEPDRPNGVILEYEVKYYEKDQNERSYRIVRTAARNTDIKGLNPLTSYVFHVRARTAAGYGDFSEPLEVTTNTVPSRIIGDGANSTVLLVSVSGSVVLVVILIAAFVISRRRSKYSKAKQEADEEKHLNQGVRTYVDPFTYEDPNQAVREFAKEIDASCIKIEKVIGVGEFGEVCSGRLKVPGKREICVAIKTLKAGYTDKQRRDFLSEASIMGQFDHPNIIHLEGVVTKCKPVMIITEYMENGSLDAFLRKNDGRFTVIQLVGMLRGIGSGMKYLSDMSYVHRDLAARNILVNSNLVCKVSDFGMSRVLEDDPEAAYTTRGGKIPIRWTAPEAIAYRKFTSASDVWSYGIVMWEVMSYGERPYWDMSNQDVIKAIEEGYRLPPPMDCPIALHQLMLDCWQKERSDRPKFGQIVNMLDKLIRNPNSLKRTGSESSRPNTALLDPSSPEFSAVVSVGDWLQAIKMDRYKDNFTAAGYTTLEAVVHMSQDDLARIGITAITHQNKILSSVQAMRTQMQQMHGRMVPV
# Sequence of Cytochrome P450 2C9 (P11712 whole entry): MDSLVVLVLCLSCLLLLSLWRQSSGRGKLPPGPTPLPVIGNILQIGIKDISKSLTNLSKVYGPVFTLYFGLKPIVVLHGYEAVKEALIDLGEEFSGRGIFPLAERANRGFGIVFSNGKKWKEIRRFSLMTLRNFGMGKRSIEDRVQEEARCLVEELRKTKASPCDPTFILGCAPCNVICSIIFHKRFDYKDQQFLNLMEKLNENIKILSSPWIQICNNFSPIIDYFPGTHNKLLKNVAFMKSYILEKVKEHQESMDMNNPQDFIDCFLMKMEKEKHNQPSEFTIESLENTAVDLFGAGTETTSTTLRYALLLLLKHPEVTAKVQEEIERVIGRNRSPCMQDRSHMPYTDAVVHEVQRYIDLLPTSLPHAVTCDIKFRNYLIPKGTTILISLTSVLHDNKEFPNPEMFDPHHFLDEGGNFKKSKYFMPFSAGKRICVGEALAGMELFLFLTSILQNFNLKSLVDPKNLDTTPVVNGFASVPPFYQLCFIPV
# Sequence of Cytochrome P450 2D6 (P10635 whole entry): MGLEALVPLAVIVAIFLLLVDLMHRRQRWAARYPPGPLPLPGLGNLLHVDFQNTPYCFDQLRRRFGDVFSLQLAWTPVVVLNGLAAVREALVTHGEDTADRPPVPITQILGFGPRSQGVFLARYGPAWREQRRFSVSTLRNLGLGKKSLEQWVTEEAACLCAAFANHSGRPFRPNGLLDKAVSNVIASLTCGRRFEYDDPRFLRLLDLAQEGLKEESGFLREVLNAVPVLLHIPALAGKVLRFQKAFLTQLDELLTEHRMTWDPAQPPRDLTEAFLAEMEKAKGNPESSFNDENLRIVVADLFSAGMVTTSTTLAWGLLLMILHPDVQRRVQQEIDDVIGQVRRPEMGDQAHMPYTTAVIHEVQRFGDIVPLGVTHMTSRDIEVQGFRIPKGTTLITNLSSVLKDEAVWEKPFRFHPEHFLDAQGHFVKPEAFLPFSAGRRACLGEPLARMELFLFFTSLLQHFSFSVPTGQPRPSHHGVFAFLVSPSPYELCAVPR
# Sequence of Eukaryotic translation initiation factor 4E (P63073 whole entry): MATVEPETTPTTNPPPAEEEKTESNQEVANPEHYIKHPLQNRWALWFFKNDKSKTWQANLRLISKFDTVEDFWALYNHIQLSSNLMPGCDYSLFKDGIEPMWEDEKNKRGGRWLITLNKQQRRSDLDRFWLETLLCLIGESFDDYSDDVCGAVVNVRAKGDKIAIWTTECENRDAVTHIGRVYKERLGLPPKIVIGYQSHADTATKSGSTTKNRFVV
smiles,measurement,setting,value
COC(=O)C1CCCN1S(=O)(=O)c1ccc2ccccc2c1 (stereo unspecified),CC50,[1],> 40 µM (active)
same,AC50,[2],8.28 µM (active)
CCCCCCOC(=O)C(C#N)c1nc2ccccc2nc1N1CCN(CC)CC1 (stereo unspecified),AC50,[3],25.1 µM (inconclusive)
same,IC50,[4],13.6 µM (active)
same,IC50,[5],> 100 µM (not active)
same,CC50,[6],24.7 µM (active)
same,AC50,[7],7.94 µM (inconclusive)
same,CC50,[8],19.7 µM (active)
Cc1cccnc1NC(=S)NC(=O)c1cccs1,EC50,[9],> 67.5 µM (inactive)
same,EC50,[10],190 nM (active)
same,EC50,[11],161 nM (active)
same,EC50,[12],464 nM (active)
same,IC50,[13],> 66 µM (inactive)
same,IC50,[14],> 66 µM (inactive)
same,EC50,[15],14.9 µM (active)
same,EC50,[16],> 67.5 µM (inactive)
same,EC50,[17],< 100 nM (active)
COc1ccc(OC)c(NC(=O)C2CCN(Cc3cnn(-c4ccccc4)c3-n3cccc3)CC2)c1,IC50,[18],> 109 µM (inactive)
same,IC50,[19],> 83.3 µM (inactive)
same,EC50,[20],2.48 µM (active)
CCCNCC(O)COc1ccccc1C(=O)CCc1ccccc1 (stereo unspecified) [PROPAFENONE],IC50,[21],> 10 µM (inactive)
same,IC50,[22],> 10 µM (inactive)
same,IC50,[23],4.92 µM (active)
same,IC50,[24],> 33.3 µM (inactive)
CCn1c(SCC(=O)NCc2ccc3c(c2)OCO3)nnc1-c1cccs1,IC50,[25],> 64 µM (inactive)
same,IC50,[26],> 100 µM (active)
CSc1ccc2c(c1)C(N1CCN(C)CC1)Cc1ccccc1S2 (stereo unspecified) [METITEPINE],IC50,[21],> 10 µM (inactive)
same,IC50,[22],> 10 µM (inactive)
same,IC50,[23],2.94 µM (active)
same,IC50,[24],> 33.3 µM (inactive)
Clc1ccccc1/C=N/NC1=Nc2cccc3cccc1c23,EC50,[9],> 67.6 µM (inactive)
same,EC50,[27],10.6 µM (not active)
same,EC50,[16],> 67.6 µM (inactive)
same,EC50,[28],> 89.3 µM (inactive)
c1ccc(-c2nc3ccccn3c2NCc2ccc3c(c2)OCO3)cc1,EC50,[29],> 50 µM (not active)
CCc1nc2sc3ccccc3c(=O)c2c(=O)n1Cc1ccco1,IC50,[30],15.1 µM (active)
same,IC50,[31],12.6 µM (not active)
same,IC50,[32],52.2 µM (inactive)
same,IC50,[33],6.59 µM (active)
CC(C)C(Nc1ncnc2c1oc1ccccc12)C(=O)O (stereo unspecified),IC50,[18],> 109 µM (inactive)
same,IC50,[19],> 83.3 µM (inactive)
same,EC50,[34],12.6 µM (active)
same,EC50,[35],10.8 µM (active)
COc1ccc(-c2ccc([C@@H]3[C@@H]4CN(Cc5ccccn5)C[C@H]3N4)cc2)cc1,AC50,[36],28.7 µM (active)
Sc1ncnc2c1cnn2Cc1ccccc1,EC50,[37],3.56 µM (active)
same,EC50,[38],> 150 µM (inactive)
same,AC50,[36],11.2 µM (active)
C[C@]12CCC(=O)C=C1CCC1C2CC[C@@]2(C)C1CC[C@@]2(O)CC#N (stereo partly specified),IC50,[33],> 50 µM (not active)
COc1cc(N2C(=O)C=CC2=O)ccc1N1C(=O)C=CC1=O,AC50,[39],2.32 µM (active)
same,IC50,[40],57.4 µM (inactive)
same,AC50,[41],12.5 µM (active)
same,AC50,[42],15.8 µM (active)
same,IC50,[43],1.59 µM (active)
same,IC50,[44],11 µM (inactive)
same,IC50,[45],53.8 µM (active)
same,IC50,[26],> 100 µM (active)
